pEC50, pKi: −log10 of the molar value. Where “and” joins values, the source holds several entries; their conditions need not be identical. Identical values can stand only once.
Tests used:
DRD2 (D2 long receptor) = DRD2 (D2 long receptor) (Homo sapiens, UniProt P14416); assay: β-arrestin2 recruitment (Tango), HTLA cells; assay type: cell-based; conditions: for response, concentration-response data point (replicates): Fig_S10a, drug alone
DRD2 F1103.28L [1] = molecular target: T1, DRD2 F1103.28L (Homo sapiens, UniProt P14416, F110L); assay: β-arrestin2 recruitment (Tango), mutant; assay type: cell-based
T1 construct: expressed in transfected cells; host or cells: HEK293T (ATCC CRL-11268)
T1 sequence (P14416 whole entry F110L): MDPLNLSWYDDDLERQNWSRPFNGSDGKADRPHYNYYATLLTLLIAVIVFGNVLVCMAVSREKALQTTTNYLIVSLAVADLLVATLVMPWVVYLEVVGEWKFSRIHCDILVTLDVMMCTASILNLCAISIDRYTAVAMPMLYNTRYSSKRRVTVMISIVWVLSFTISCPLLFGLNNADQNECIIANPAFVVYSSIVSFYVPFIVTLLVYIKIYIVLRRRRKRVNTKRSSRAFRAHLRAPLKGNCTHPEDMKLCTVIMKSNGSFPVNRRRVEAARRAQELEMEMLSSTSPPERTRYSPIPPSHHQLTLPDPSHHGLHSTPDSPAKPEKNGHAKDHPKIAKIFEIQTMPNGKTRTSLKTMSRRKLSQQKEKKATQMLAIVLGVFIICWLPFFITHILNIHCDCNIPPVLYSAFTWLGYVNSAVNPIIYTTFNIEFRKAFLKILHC

DRD3 wild-type = DRD3 wild-type (Homo sapiens, UniProt P35462); assay: Radioligand competition binding, [3H]-N-methylspiperone; conditions: DRD3; [3H]-methylspiperone (0.8-1.0 nM); read-out: Ki
Chain of DRD3 wild-type (P35462 whole entry): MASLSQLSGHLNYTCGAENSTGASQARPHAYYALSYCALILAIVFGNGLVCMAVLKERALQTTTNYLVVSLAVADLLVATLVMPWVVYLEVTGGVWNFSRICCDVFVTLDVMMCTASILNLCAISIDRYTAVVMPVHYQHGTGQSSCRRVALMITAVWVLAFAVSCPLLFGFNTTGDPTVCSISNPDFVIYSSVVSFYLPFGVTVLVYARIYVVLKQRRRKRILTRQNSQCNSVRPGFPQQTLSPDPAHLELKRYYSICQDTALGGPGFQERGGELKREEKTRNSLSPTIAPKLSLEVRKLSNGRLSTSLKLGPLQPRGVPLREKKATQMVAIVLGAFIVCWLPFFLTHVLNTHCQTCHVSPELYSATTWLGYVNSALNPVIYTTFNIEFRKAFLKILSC

[2] = molecular target: DRD2 (D2 long receptor) wild-type (Homo sapiens, UniProt P14416); assay: Radioligand competition binding, [3H]-N-methylspiperone, HEK293T membranes; conditions: DRD2; [3H]-methylspiperone (0.8-1.0 nM); read-out: Ki
Chain of DRD2 (D2 long receptor) wild-type (P14416 whole entry): as the sequence (P14416 whole entry F110L) above, with L110F counted along it

5HT2A = 5HT2A (Homo sapiens, UniProt P28223); assay: β-arrestin2 recruitment (Tango); assay type: cell-based; conditions: single replicate values
Chain of 5HT2A (P28223 whole entry): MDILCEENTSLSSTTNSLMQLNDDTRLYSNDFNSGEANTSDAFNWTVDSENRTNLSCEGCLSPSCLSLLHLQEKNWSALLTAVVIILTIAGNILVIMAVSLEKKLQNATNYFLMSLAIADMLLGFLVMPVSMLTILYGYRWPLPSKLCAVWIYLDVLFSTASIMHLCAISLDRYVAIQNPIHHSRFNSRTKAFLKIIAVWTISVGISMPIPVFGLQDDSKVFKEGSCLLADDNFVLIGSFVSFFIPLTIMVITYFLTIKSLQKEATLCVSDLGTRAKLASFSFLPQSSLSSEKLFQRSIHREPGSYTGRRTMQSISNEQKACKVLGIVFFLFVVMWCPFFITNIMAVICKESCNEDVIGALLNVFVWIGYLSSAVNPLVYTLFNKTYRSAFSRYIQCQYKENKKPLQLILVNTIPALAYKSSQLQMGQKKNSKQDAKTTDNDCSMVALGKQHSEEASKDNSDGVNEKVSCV

[3] = test system: serotonin receptor of Fig_S10i (subtype not given); assay: β-arrestin2 recruitment (Tango), agonist activity, source data Fig_S10i; assay type: cell-based, human; conditions: drug alone
DRD2 F1103.28L [4] = molecular target: T1, DRD2 F1103.28L; assay: Gαi/o-mediated cAMP inhibition (GloSensor), mutant; assay type: cell-based; conditions: DRD2 F1103.28L (b138 head prints DRD2 F1063.28L)
DRD2 F1103.28A = DRD2 F1103.28A (Homo sapiens, UniProt P14416, F110A); assay type: binding; design: expressed in transfected cells; host or cells: HEK293T (ATCC CRL-11268); conditions: DRD2 F1103.28A; read-out: Ki
Chain of DRD2 F1103.28A (P14416 whole entry F110A): as the sequence (P14416 whole entry F110L) above, with L110A counted along it

320 non-olfactory GPCRs = assay type: cell-based; conditions: compound at 1 μM

Chain of DRD2 (D2 long receptor) (P14416 whole entry): as the sequence (P14416 whole entry F110L) above, with L110F counted along it

CCOc1cccc2cc([C@H](C)NCC3(O)CCCCC3)oc12 [O4SE6]
response, concentration-response data point (replicates) (DRD2 (D2 long receptor); Log[Drug] -7.52): 5.75 and 5.841 and 5.282 and 5.619 and 6.782 and 5.749 and 5.8801 | response, concentration-response data point (replicates) (DRD2 (D2 long receptor); Log[Drug] -8): 5.434 and 5.45 and 5.389 and 5.042 and 5.329 and 5.148 and 5.345 | response, concentration-response data point (replicates) (DRD2 (D2 long receptor); Log[Drug] -8.52): 5.277 and 5.01 and 4.9419 and 4.98 and 5.0858 and 5.308 and 5.178 | response, concentration-response data point (replicates) (DRD2 (D2 long receptor); Log[Drug] -9): 5.4097 and 5.385 and 5.128 and 4.863 and 4.947 and 4.805 and 4.8829 | response, concentration-response data point (replicates) (DRD2 (D2 long receptor); Log[Drug] -9.52): 5.139 and 4.887 | response, concentration-response data point (replicates) (DRD2 (D2 long receptor); Log[Drug] -10): 5.431 and 4.786 and 4.659 and 4.856 and 4.756 and 4.79 and 4.8682 | response, concentration-response data point (replicates) (DRD2 (D2 long receptor); Log[Drug] -10.52): 5.022 and 4.798 and 4.776 and 4.763 and 4.86 and 4.945 and 4.841 | response, concentration-response data point (replicates) (DRD2 (D2 long receptor); Log[Drug] -11): 4.915 and 4.765 and 4.615 and 4.7302 and 4.774 and 4.749 and 4.971 | response, concentration-response data point (replicates) (DRD2 (D2 long receptor); Log[Drug] -11.52): 4.946 and 4.662 and 4.627 and 4.695 and 4.751 and 4.656 and 4.732 | response, concentration-response data point (replicates) (DRD2 (D2 long receptor); Log[Drug] -12): 4.887 and 4.582 and 4.674 and 4.754 and 4.726 and 4.751 and 4.811 | Emax (DRD2 (D2 long receptor); HTLA, read-out: Emax relative to quinpirole response, DRD2, Tango): 71.3% | β-arrestin2 recruitment response at DRD2 (source data, replicate values) (DRD2 (D2 long receptor); Log[Drug] -6): 82.8973 | β-arrestin2 recruitment response at DRD2 (source data, replicate values) (DRD2 (D2 long receptor); Log[Drug] -6.52): 72.8482 and 85.473 and 74.6038 and 82.6009 and 103.942 and 82.378 and 70.1593 and 68.4699 and 74.397 | β-arrestin2 recruitment response at DRD2 (source data, replicate values) (DRD2 (D2 long receptor); Log[Drug] -7): 71.4846 and 69.3009 and 62.1089 and 68.8602 and 55.9009 and 59.7861 and 54.6819 and 54.8285 and 54.3284 | β-arrestin2 recruitment response at DRD2 (source data, replicate values) (DRD2 (D2 long receptor); Log[Drug] -7.52): 50.7715 and 50.9759 and 58.0792 and 57.6214 and 43.2407 and 45.9376 and 55.9749 and 62.7315 and 56.5853 | β-arrestin2 recruitment response at DRD2 (source data, replicate values) (DRD2 (D2 long receptor); Log[Drug] -8): 39.7841 and 36.3747 and 29.4664 and 31.1292 and 29.8397 and 30.2988 and 27.2382 and 26.622 and 26.0732 | β-arrestin2 recruitment response at DRD2 (source data, replicate values) (DRD2 (D2 long receptor); Log[Drug] -8.52): 13.2168 and 14.3867 and 13.161 and 13.9303 and 10.9069 and 10.856 and 10.5462 and 11.4912 and 11.2421 | β-arrestin2 recruitment response at DRD2 (source data, replicate values) (DRD2 (D2 long receptor); Log[Drug] -9): 7.123 and 6.617 and 6.837 and 5.043 and 6.064 and 6.895 and 5.588 and 6.122 and 5.826 | β-arrestin2 recruitment response at DRD2 (source data, replicate values) (DRD2 (D2 long receptor); Log[Drug] -9.52): 5.908 and 5.15 and 5.772 and 5.0023 and 4.872 and 4.927 and 5.017 and 5.057 and 5.0924 | β-arrestin2 recruitment response at DRD2 (source data, replicate values) (DRD2 (D2 long receptor); Log[Drug] -10): 5.347 and 5.121 and 5.289 and 4.982 and 4.774 and 4.763 and 4.918 and 4.901 and 4.8503 | β-arrestin2 recruitment response at DRD2 (source data, replicate values) (DRD2 (D2 long receptor); Log[Drug] -10.52): 5.092 and 5.033 and 5.133 and 4.671 and 4.683 and 4.718 and 4.817 and 4.868 and 4.747 | β-arrestin2 recruitment response at DRD2 (source data, replicate values) (DRD2 (D2 long receptor); Log[Drug] -11): 5.0524 and 5.024 and 4.843 and 4.786 and 4.868 and 4.603 and 4.715 and 4.851 and 5.108 | β-arrestin2 recruitment response at DRD2 (source data, replicate values) (DRD2 (D2 long receptor); Log[Drug] -11.52): 4.975 and 5.004 and 4.993 and 4.845 and 4.81 and 4.615 and 4.945 and 4.7318 and 4.6555 | pEC50 (DRD2 F1103.28L [1]): < 5.00 | pKi (DRD3 wild-type): 6.09 | pKi [2]: 5.34 | Fig_S10k dose-response, drug alone (agonist mode), β-arrestin2 recruitment (5HT2A; Log[Drug] -6.52): 0.09538 | Fig_S10k dose-response, drug alone (agonist mode), β-arrestin2 recruitment (5HT2A; Log[Drug] -7): 0.3962 and -0.2054 (2×) and 5.128 and 7.247 and 2.453 and 3.603 and 2.6312 and 1.871 | Fig_S10k dose-response, drug alone (agonist mode), β-arrestin2 recruitment (5HT2A; Log[Drug] -7.52): 1.849 and 5.363 and 7.4248 and 2.33 and -2.369 and -1.196 and 2.4436 and 3.608 and 1.304 | Fig_S10k dose-response, drug alone (agonist mode), β-arrestin2 recruitment (5HT2A; Log[Drug] -8): 0.1101 and -1.394 and 0.08804 and 0.4387 and -1.323 and -0.5329 and 3.218 and 3.021 and 2.073 | Fig_S10k dose-response, drug alone (agonist mode), β-arrestin2 recruitment (5HT2A; Log[Drug] -8.52): 0.3815 and 3.632 and -0.1981 and 19.2051 and 7.825 and 6.317 and 2.439 and 3.208 and 2.251 | Fig_S10k dose-response, drug alone (agonist mode), β-arrestin2 recruitment (5HT2A; Log[Drug] -9): 0.6676 and 2.15 and 0.4035 and 0.1625 and 2.551 and 3.851 and 2.828 and 4.478 and 2.251 | Fig_S10k dose-response, drug alone (agonist mode), β-arrestin2 recruitment (5HT2A; Log[Drug] -9.52): 4.806 and 0.08804 and -0.4842 and 4.631 and 0.2307 and -0.1755 and 1.9722 and 24.5707 and 1.991 | Fig_S10k dose-response, drug alone (agonist mode), β-arrestin2 recruitment (5HT2A; Log[Drug] -10): -0.2054 and -0.7704 and 0.7117 and -0.5849 and 0.2632 and -1.306 and 3.401 and 3.333 and 0.9043 | Fig_S10k dose-response, drug alone (agonist mode), β-arrestin2 recruitment (5HT2A; Log[Drug] -10.52): -0.4696 and 0.1247 and -0.7704 and 2.297 and 0.5134 and 0.234 and 6.104 and 1.842 and 5.349 | Fig_S10k dose-response, drug alone (agonist mode), β-arrestin2 recruitment (5HT2A; Log[Drug] -11): -0.4842 and -0.7704 and -1.0785 and -0.00325 and -1.534 and 4.039 and 3.002 and 2.646 and 1.477 | Fig_S10k dose-response, drug alone (agonist mode), β-arrestin2 recruitment (5HT2A; Log[Drug] -11.52): -0.2421 and 0.9685 and 5.092 and -0.6109 and 22.6335 and -1.787 and 6.47 and 2.973 and 3.016 | Fig_S10k dose-response, drug alone (agonist mode), β-arrestin2 recruitment (5HT2A; Log[Drug] -12): 13.3089 and 0.9391 and 1.555 and -1.157 and -0.9684 and -1.794 and 7.23 and 11.8669 and 5.71 | response, single replicates of the concentration-response curve ([3]; Log[Drug] -11.52): -11.574 and -4.3 and 8.5185 and 5.043 and 17.6989 and -6.28 and -5.544 and 6.734 and -5.212 | response, single replicates of the concentration-response curve ([3]; Log[Drug] -12): -1.958 and 0.9753 and 5.65 and 9.245 and 10.4038 and -4.648 and 6.652 and -2.743 and 7.282 | pEC50 (DRD2 F1103.28L [4]): < 5.00 | pKi (DRD2 F1103.28A): 6.28 | agonism across 320 nonolfactory GPCRs (320 non-olfactory GPCRs): only DRD2 activity was observed

Reference: publication PMC7044277 (Nature Communications, 2020)
